Results reported in the supplement of paper PMC4862054.

Key:
Conditions in all cases: incubation time: 72 h
CAL-120 [1] = assay: drug sensitivity score (DSS), CellTox Green (DSS (AUC-based score)); higher = stronger drug effect (viability inhibition or cytotoxicity); extreme values may be limits of the assay
Procedure, shortened: (§1)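 Breast cancer cell lines, seeded as 20 µl suspension, were incubated 72 h with compound in 384-well plates at 5 concentrations in 10-fold steps over a 10,000-fold range set for each compound. Fluorescence from CellTox Green was read at 485/520 nm before CellTiter-Glo luminescence, which was read after 10 min at room temperature. Every plate was normalised to 0.1 % DMSO and a positive kill control, and the drug sensitivity score was taken from the area under the fitted dose-response curve.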

MCF-10A = assay: as above
Procedure, shortened: as §1

HDQ-P1 [2] = assay: as above
Procedure, shortened: as §1

HCC1599 [3] = assay: as above
Procedure, shortened: as §1

HCC1937 [4] = assay: as above
Procedure, shortened: as §1

BT-474 [5] = assay: as above
Procedure, shortened: as §1

MDA-MB-436 = assay: normalised viability (% of control), CellTiter-Blue; higher = more viable cells (100 = DMSO, 0 = benzethonium chloride kill control)
Method: (§2)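 DSRT, CellTiter-Blue viability, 72 h incubation. Signal is normalised to DMSO and benzethonium chloride controls. Value is the normalised response at dose 1.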

MFM-223 = assay: as above
Method: as §2

DU-4475 [6] = assay: as above
Method: as §2

CAL-120 [7] = assay: as above
Method: as §2

MDA-MB-453 = assay: as above
Method: as §2

HDQ-P1 [8] = assay: as above
Method: as §2

MDA-MB-231 = assay: as above
Method: as §2

MDA-MB-468 = assay: as above
Method: as §2

CAL-85-1 [9] = assay: as above
Method: as §2

CAL-51 = assay: as above
Method: as §2

BT-549 = assay: as above
Method: as §2

HCC1599 [10] = assay: as above
Method: as §2

CAL-148 [11] = assay: as above
Method: as §2

Hs578T = assay: as above
Method: as §2

SK-BR-3 = assay: as above
Method: as §2

HCC1937 [12] = assay: as above
Method: as §2

HCC1143 = assay: as above
Method: as §2

BT-474 [13] = assay: as above
Method: as §2

DU-4475 [14] = assay: normalised viability (% of control), CellTiter-Blue; higher = more viable cells (about 100 = DMSO control)
Method: (§3)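 DSRT, CellTiter-Blue viability, 72 h incubation. Signal is normalised to DMSO and benzethonium chloride controls. Value is the normalised response at dose 9.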

HDQ-P1 [15] = assay: as above
Method: as §3

CAL-85-1 [16] = assay: as above
Method: as §3

CAL-148 [17] = assay: as above
Method: as §3

CN1CCN(CCOc2cc(OC3CCOCC3)c3c(Nc4c(Cl)ccc5c4OCO5)ncnc3c2)CC1 [Saracatinib]
drug sensitivity score (CAL-120 [1]): 0
drug sensitivity score (MCF-10A): 0
drug sensitivity score (HDQ-P1 [2]): 2.22
drug sensitivity score (HCC1599 [3]): 0
drug sensitivity score (HCC1937 [4]): 0
drug sensitivity score (BT-474 [5]): 1.96
normalised viability (MDA-MB-436; 1 nM): 122%
normalised viability (MFM-223; 1 nM): 105%
normalised viability (DU-4475 [6]; 1 nM): 107%
normalised viability (CAL-120 [7]; 1 nM): 82.4%
normalised viability (MDA-MB-453; 1 nM): 105%
normalised viability (HDQ-P1 [8]; 1 nM): 113%
normalised viability (MDA-MB-231; 1 nM): 85.5%
normalised viability (MDA-MB-468; 1 nM): 104%
normalised viability (CAL-85-1 [9]; 1 nM): 88.7%
normalised viability (CAL-51; 1 nM): 106%
normalised viability (BT-549; 1 nM): 89.4%
normalised viability (HCC1599 [10]; 1 nM): 97.2%
normalised viability (CAL-148 [11]; 1 nM): 89.8%
normalised viability (Hs578T; 1 nM): 107%
normalised viability (SK-BR-3; 1 nM): 91.5%
normalised viability (HCC1937 [12]; 1 nM): 99.4%
normalised viability (HCC1143; 1 nM): 80.9%
normalised viability (BT-474 [13]; 1 nM): 93.9%
normalised viability (DU-4475 [14]; 10000 nM): 133%
normalised viability (HDQ-P1 [15]; 10000 nM): 21.9%
normalised viability (CAL-85-1 [16]; 10000 nM): 23.5%
normalised viability (CAL-148 [17]; 10000 nM): 62%

CC[C@]1(O)C[C@H]2CN(CCc3c([nH]c4ccccc34)[C@@](C(=O)OC)(c3cc4c(cc3OC)N(C=O)[C@H]3[C@@](O)(C(=O)OC)[C@H](OC(C)=O)[C@]5(CC)C=CCN6CC[C@]43[C@@H]65)C2)C1 [Vincristine]
drug sensitivity score (CAL-120 [1]): 1.68
drug sensitivity score (MCF-10A): 14.2
drug sensitivity score (HDQ-P1 [2]): 0
drug sensitivity score (HCC1599 [3]): 2.79
drug sensitivity score (HCC1937 [4]): 0
drug sensitivity score (BT-474 [5]): 6.14
normalised viability (MDA-MB-436; 0.1 nM): 89.4%
normalised viability (MDA-MB-436; 1 nM): 109%
normalised viability (MFM-223; 0.1 nM): 99.7%
normalised viability (MFM-223; 1 nM): 91%
normalised viability (DU-4475 [6]; 0.1 nM): 97.6%
normalised viability (DU-4475 [6]; 1 nM): 88.9%
normalised viability (CAL-120 [7]; 0.1 nM): 77.9%
normalised viability (CAL-120 [7]; 1 nM): 57.7%
normalised viability (MDA-MB-453; 0.1 nM): 107%
normalised viability (MDA-MB-453; 1 nM): 88.5%
normalised viability (HDQ-P1 [8]; 0.1 nM): 90%
normalised viability (HDQ-P1 [8]; 1 nM): 95.3%
normalised viability (MDA-MB-231; 0.1 nM): 95.8%
normalised viability (MDA-MB-231; 1 nM): 82.5%
normalised viability (MDA-MB-468; 0.1 nM): 87.5%
normalised viability (MDA-MB-468; 1 nM): 49.2%
normalised viability (CAL-85-1 [9]; 0.1 nM): 86.5%
normalised viability (CAL-85-1 [9]; 1 nM): 91.8%
normalised viability (CAL-51; 0.1 nM): 103%
normalised viability (CAL-51; 1 nM): 93.8%
normalised viability (BT-549; 0.1 nM): 93.1%
normalised viability (BT-549; 1 nM): 93.5%
normalised viability (HCC1599 [10]; 0.1 nM): 119%
normalised viability (HCC1599 [10]; 1 nM): 93.9%
normalised viability (CAL-148 [11]; 0.1 nM): 87.6%
normalised viability (CAL-148 [11]; 1 nM): 108%
normalised viability (Hs578T; 0.1 nM): 120%
normalised viability (Hs578T; 1 nM): 92.6%
normalised viability (SK-BR-3; 0.1 nM): 87.9%
normalised viability (SK-BR-3; 1 nM): 25.5%
normalised viability (HCC1937 [12]; 0.1 nM): 74.4%
normalised viability (HCC1937 [12]; 1 nM): 79.4%
normalised viability (HCC1143; 0.1 nM): 80%
normalised viability (HCC1143; 1 nM): 89.6%
normalised viability (BT-474 [13]; 0.1 nM): 97.2%
normalised viability (BT-474 [13]; 1 nM): 41.5%
normalised viability (DU-4475 [14]; 1000 nM): 7.67%
normalised viability (DU-4475 [14]; 10000 nM): 8.66%
normalised viability (HDQ-P1 [15]; 1000 nM): 41.5%
normalised viability (HDQ-P1 [15]; 10000 nM): 37.9%
normalised viability (CAL-85-1 [16]; 1000 nM): 47.4%
normalised viability (CAL-85-1 [16]; 10000 nM): 39.8%
normalised viability (CAL-148 [17]; 1000 nM): 21.8%
normalised viability (CAL-148 [17]; 10000 nM): 28.5%

C/C(=C\c1csc(C)n1)[C@@H]1C[C@@H]2O[C@]2(C)CCC[C@H](C)[C@H](O)[C@@H](C)C(=O)C(C)(C)[C@@H](O)CC(=O)O1 [Patupilone]
drug sensitivity score (CAL-120 [1]): 2.68
drug sensitivity score (MCF-10A): 7.87
drug sensitivity score (HDQ-P1 [2]): 0
drug sensitivity score (HCC1599 [3]): 0
drug sensitivity score (HCC1937 [4]): 0
drug sensitivity score (BT-474 [5]): 8.09
normalised viability (MDA-MB-436; 0.1 nM): 116%
normalised viability (MFM-223; 0.1 nM): 104%
normalised viability (DU-4475 [6]; 0.1 nM): 98.7%
normalised viability (CAL-120 [7]; 0.1 nM): 94.6%
normalised viability (MDA-MB-453; 0.1 nM): 97.5%
normalised viability (HDQ-P1 [8]; 0.1 nM): 112%
normalised viability (MDA-MB-231; 0.1 nM): 129%
normalised viability (MDA-MB-468; 0.1 nM): 101%
normalised viability (CAL-85-1 [9]; 0.1 nM): 93.4%
normalised viability (CAL-51; 0.1 nM): 102%
normalised viability (BT-549; 0.1 nM): 113%
normalised viability (HCC1599 [10]; 0.1 nM): 97.3%
normalised viability (CAL-148 [11]; 0.1 nM): 105%
normalised viability (Hs578T; 0.1 nM): 118%
normalised viability (SK-BR-3; 0.1 nM): 102%
normalised viability (HCC1937 [12]; 0.1 nM): 95.6%
normalised viability (HCC1143; 0.1 nM): 102%
normalised viability (BT-474 [13]; 0.1 nM): 97.7%
normalised viability (DU-4475 [14]; 1000 nM): 2.77%
normalised viability (HDQ-P1 [15]; 1000 nM): 55.1%
normalised viability (CAL-85-1 [16]; 1000 nM): 30.3%
normalised viability (CAL-148 [17]; 1000 nM): 19.9%
